pKi: −log10 of the molar value.
Target: T1, human MR (Homo sapiens, UniProt P08235)
T1 construct: The full length human MR gene is cloned from a human kidney or human brain cDNA library; made in house; host or cells: Sf9 insect cells (baculovirus, pAcHLT transfer vector)
T1 sequence (P08235 1-984): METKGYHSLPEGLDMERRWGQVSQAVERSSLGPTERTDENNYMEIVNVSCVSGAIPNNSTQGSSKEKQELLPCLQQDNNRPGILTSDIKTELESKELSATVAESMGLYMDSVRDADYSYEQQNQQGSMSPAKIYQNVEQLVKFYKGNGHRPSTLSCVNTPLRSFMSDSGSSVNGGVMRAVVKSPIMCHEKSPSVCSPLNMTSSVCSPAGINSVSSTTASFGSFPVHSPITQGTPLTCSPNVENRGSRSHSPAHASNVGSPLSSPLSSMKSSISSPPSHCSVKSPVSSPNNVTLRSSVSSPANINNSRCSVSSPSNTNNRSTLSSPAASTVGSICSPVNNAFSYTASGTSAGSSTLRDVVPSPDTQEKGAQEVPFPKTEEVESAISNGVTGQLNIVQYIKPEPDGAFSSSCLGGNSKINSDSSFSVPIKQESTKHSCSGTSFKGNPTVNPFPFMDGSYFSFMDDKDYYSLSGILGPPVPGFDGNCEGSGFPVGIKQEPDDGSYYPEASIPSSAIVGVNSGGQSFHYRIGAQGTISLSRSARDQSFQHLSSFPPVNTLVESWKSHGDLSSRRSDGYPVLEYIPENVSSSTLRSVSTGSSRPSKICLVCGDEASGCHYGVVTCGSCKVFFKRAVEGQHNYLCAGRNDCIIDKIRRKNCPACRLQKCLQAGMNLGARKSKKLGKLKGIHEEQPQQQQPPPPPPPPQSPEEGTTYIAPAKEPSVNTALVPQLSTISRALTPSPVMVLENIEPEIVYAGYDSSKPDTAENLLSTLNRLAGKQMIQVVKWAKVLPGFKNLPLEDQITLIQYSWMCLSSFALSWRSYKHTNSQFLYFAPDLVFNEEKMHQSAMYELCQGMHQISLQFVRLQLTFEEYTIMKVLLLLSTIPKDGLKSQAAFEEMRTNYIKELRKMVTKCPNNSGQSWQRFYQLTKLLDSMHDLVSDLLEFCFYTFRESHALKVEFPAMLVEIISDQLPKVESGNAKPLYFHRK
Assay: Mineralocorticoid Receptor Binding Assay ([3H]-aldosterone displacement)
Settings: full length human MR expressed in Sf9 cells, 0.5 nM [3H]-aldosterone
Method in brief: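 Full-length human MR expressed in Sf9 cells; lysate (20-25 μg protein) incubated with 0.5 nM [3H]-aldosterone and test compound in molybdate/Tris/phosphate/glycerol buffer pH 7.5, 16 h at 4 °C. Bound ligand measured by filtration and scintillation counting; IC50 converted to Ki via Cheng-Prusoff.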

SMILES | pKi
COC(=O)c1ccc(CN2C(=O)C(c3cc(C)c(O)c(C)c3)(c3cc(C)c(O)c(C)c3)c3ccccc32)o1 [Example 108, 5-[3,3-Bis-(4-hydroxy-3,5-dimethyl-phenyl)-2-oxo-2,3-dihydro-indol-1-ylmethyl]-furan-2-carboxylic acid methyl ester] | ≥ 6.30
CCOC(=O)CN1C(=O)C(c2cc(C)c(O)c(C)c2)(c2cc(C)c(O)c(C)c2)c2ccccc21 [Example 109, [3,3-Bis-(4-hydroxy-3,5-dimethyl-phenyl)-2-oxo-2,3-dihydro-indol-1-yl]-acetic acid ethyl ester] | ≥ 6.30
Cc1cc(C2(c3cc(C)c(O)c(C)c3)C(=O)N(CCC3CCCCC3)c3ccccc32)cc(C)c1O [Example 110, 1-(2-Cyclohexyl-ethyl)-3,3-bis-(4-hydroxy-3,5-dimethyl-phenyl)-1,3-dihydro-indol-2-one] | ≥ 6.30
Cc1cc(C2(c3cc(C)c(O)c(C)c3)C(=O)N(Cc3ccncc3)c3ccccc32)cc(C)c1O [Example 111, 3,3-Bis-(4-hydroxy-3,5-dimethyl-phenyl)-1-pyridin-4-ylmethyl-1,3-dihydro-indol-2-one] | ≥ 6.30
Cc1cc(C2(c3cc(C)c(O)c(C)c3)C(=O)N(Cc3c(Cl)cccc3Cl)c3ccccc32)cc(C)c1O [Example 113, 1-(2,6-Dichloro-benzyl)-3,3-bis-(4-hydroxy-3,5-dimethyl-phenyl)-1,3-dihydro-indol-2-one] | ≥ 6.30
Cc1cc(C2(c3cc(C)c(O)c(C)c3)C(=O)N(Cc3c(F)cccc3F)c3ccccc32)cc(C)c1O [Example 115, 1-(2,6-Difluoro-benzyl)-3,3-bis-(4-hydroxy-3,5-dimethyl-phenyl)-1,3-dihydro-indol-2-one] | ≥ 6.30
Cc1cc(C2(c3cc(C)c(O)c(C)c3)C(=O)N(Cc3ccccc3N)c3ccccc32)cc(C)c1O [Example 119, 1-(2-Amino-benzyl)-3,3-bis-(4-hydroxy-3,5-dimethyl-phenyl)-1,3-dihydro-indol-2-one] | ≥ 6.30
Cc1ccc(N2C(=O)C(c3cc(C)c(O)c(C)c3)(c3cc(C)c(O)c(C)c3)c3ccccc32)cc1 [Example 125, 3,3-Bis-(4-hydroxy-3,5-dimethyl-phenyl)-1-p-tolyl-1,3-dihydro-indol-2-one] | ≥ 6.30
Cc1cc(C2(c3cc(C)c(O)c(C)c3)C(=O)N(c3ccccc3)c3ccccc32)cc(C)c1O [Example 126, 3,3-Bis-(4-hydroxy-3,5-dimethyl-phenyl)-1-phenyl-1,3-dihydro-indol-2-one] | ≥ 6.30
Cc1cc(C2(c3cc(C)c(O)c(C)c3)C(=O)N(c3cccc(C(F)(F)F)c3)c3ccccc32)cc(C)c1O [Example 127, 3,3-Bis-(4-hydroxy-3,5-dimethyl-phenyl)-1-(3-trifluoromethyl-phenyl)-1,3-dihydro-indol-2-one] | ≥ 6.30

The next lines start with the values.

pKi | SMILES
≥ 6.30 | Cc1cc(C2(c3cc(C)c(O)c(C)c3)C(=O)N(c3ccccc3Cl)c3ccccc32)cc(C)c1O [Example 129, 1-(2-Chloro-phenyl)-3,3-bis-(4-hydroxy-3,5-dimethyl-phenyl)-1,3-dihydro-indol-2-one]
≥ 6.30 | Cc1cc(C2(c3cc(C)c(O)c(C)c3)C(=O)N(c3cccc(F)c3)c3ccccc32)cc(C)c1O [Example 130, 1-(3-Fluoro-phenyl)-3,3-bis-(4-hydroxy-3,5-dimethyl-phenyl)-1,3-dihydro-indol-2-one]
≥ 6.30 | Cc1cc(C2(c3cc(C)c(O)c(C)c3)C(=O)N(c3ccc(C(F)(F)F)cc3)c3ccccc32)cc(C)c1O [Example 131, 3,3-Bis-(4-hydroxy-3,5-dimethyl-phenyl)-1-(4-trifluoromethyl-phenyl)-1,3-dihydro-indol-2-one]
≥ 6.30 | Cc1ccccc1N1C(=O)C(c2cc(C)c(O)c(C)c2)(c2cc(C)c(O)c(C)c2)c2ccccc21 [Example 132, 3,3-Bis-(4-hydroxy-3,5-dimethyl-phenyl)-1-o-tolyl-1,3-dihydro-indo 1-2-one]
≥ 6.30 | Cc1cccc(N2C(=O)C(c3cc(C)c(O)c(C)c3)(c3cc(C)c(O)c(C)c3)c3ccccc32)c1 [Example 133, 3,3-Bis-(4-hydroxy-3,5-dimethyl-phenyl)-1-m-tolyl-1,3-dihydro-indol-2-one]
≥ 6.30 | Cc1cc(C2(c3cc(C)c(O)c(C)c3)C(=O)N(c3ccncc3)c3ccccc32)cc(C)c1O [Example 136, 3,3-Bis-(4-hydroxy-3,5-dimethyl-phenyl)-1-pyridin-4-yl-1,3-dihydro-indol-2-one]
≥ 6.30 | CCOc1cccc(N2C(=O)C(c3cc(C)c(O)c(C)c3)(c3cc(C)c(O)c(C)c3)c3ccccc32)c1 [Example 137, 1-(3-Ethoxy-phenyl)-3,3-bis-(4-hydroxy-3,5-dimethyl-phenyl)-1,3-dihydro-indol-2-one]
≥ 6.30 | Cc1cc(C2(c3cc(C)c(O)c(C)c3)C(=O)N(c3cccc(C(C)C)c3)c3ccccc32)cc(C)c1O [Example 138, 3,3-Bis-(4-hydroxy-3,5-dimethyl-phenyl)-1-(3-isopropyl-phenyl)-1,3-dihydro-indol-2-one]
≥ 6.30 | COc1ccc(N2C(=O)C(c3cc(C)c(O)c(C)c3)(c3cc(C)c(O)c(C)c3)c3ccccc32)cc1OC [Example 140, 1-(3,4-Dimethoxy-phenyl)-3,3-bis-(4-hydroxy-3,5-dimethyl-phenyl)-1,3-dihydro-indol-2-one]
≥ 6.30 | COC(=O)c1cccc(-c2noc(CN3C(=O)C(c4cc(C)c(O)c(C)c4)(c4cc(C)c(O)c(C)c4)c4ccccc43)n2)c1 [Example 141, 3-{5-[3,3-Bis-(4-hydroxy-3,5-dimethyl-phenyl)-2-oxo-2,3-dihydro-indol-1-ylmethyl]-[1,2,4]oxadiazol-3-yl}-benzoic acid methyl ester]
≥ 6.30 | COc1ccc(-c2noc(CN3C(=O)C(c4cc(C)c(O)c(C)c4)(c4cc(C)c(O)c(C)c4)c4ccccc43)n2)cc1 [Example 142, 3,3-Bis-(4-hydroxy-3,5-dimethyl-phenyl)-1-[3-(4-methoxy-phenyl)-[1,2,4]oxadiazol-5-ylmethyl]-1,3-dihydro-indol-2-one]
≥ 6.30 | COc1nccc(N2C(=O)C(c3cc(C)c(O)c(C)c3)(c3cc(C)c(O)c(C)c3)c3ccccc32)n1 [Example 143, 3,3-Bis-(4-hydroxy-3,5-dimethyl-phenyl)-1-(2-methoxy-pyrimidin-4-yl)-1,3-dihydro-indol-2-one]
